We go through 4 molecules from publication PMC7949122 (The Journal of Biological Chemistry, 2021).

Non-standard residues stand in square brackets, D forms with d. Residues, ends and D or L forms follow the SMILES beside them. No end group written: not given here. Hyp = O=C(O)[C@@H]1C[C@@H](O)CN1; 2Thi = N[C@@H](Cc1cccs1)C(=O)O; Gly(N-cHex) = O=C(O)CNC1CCCCC1

Experiment [1] concerns the target T1, mutant human B2R(Ø) lacking AltB2R expression (Homo sapiens, UniProt P30411).
T1 construct: expressed in transfected cells; host or cells: HEK293A
T1 sequence (P30411 1-391): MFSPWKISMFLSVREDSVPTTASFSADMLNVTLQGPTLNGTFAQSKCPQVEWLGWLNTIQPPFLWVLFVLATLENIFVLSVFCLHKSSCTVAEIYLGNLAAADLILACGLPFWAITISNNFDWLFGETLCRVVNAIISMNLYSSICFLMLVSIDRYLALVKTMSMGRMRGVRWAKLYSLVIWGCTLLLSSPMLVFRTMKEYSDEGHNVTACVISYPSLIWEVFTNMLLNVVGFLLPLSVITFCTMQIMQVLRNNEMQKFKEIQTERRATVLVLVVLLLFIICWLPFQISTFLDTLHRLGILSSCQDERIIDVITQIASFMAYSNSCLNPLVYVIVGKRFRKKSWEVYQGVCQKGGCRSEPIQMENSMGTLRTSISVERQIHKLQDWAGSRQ
Put plainly: Competitive displacement of [3H]-BK binding, living B2R(Ø)-transfected HEK293A cells. Conditions: n = 3. Here is the method:
Black and gray, negative controls with secondary antibodies only; blue, ^FlagB2R transfected cells; red, ^FlagB2R^(Ø) transfected cells. […] Reported Kd are expressed in nM. Bmax is expressed in fmol/10^6 cells.
Radioligand competition binding assay was performed using adherent living HEK293A cells transiently transfected with B2R or B2R^(Ø), as we previously described ([54]). […] Saturation binding assays were performed using adherent living HEK293A cells transiently transfected with B2R or B2R^(Ø). […] After the incubation time, cells were washed twice with ice-cold PBS, lysed with 200 μl of 0.1 N sodium hydroxide, and transferred into scintillation vials containing 4 ml scintillation liquid. The radioactivity was measured with a β-counter and data were analyzed using GraphPad 6.01 (GraphPad Software, Inc).

For experiment [2], the target named is T2, mutant human B2R(Ø) lacking AltB2R expression (Gαq) (Homo sapiens, UniProt P30411).
T2 construct: expressed in transfected cells; host or cells: HEK293A
T2 sequence (P30411 1-391): T1 sequence (P30411 1-391)
Put plainly: BRET G protein coupling Gαq-RLuc2/GFP10-Gγ1, B2R(Ø)-transfected HEK293A cells. It is filed as cell-based. The settings on record: HEK293-A; relative to maximum B2R-induced BRET response; mean ± SD, n = 3; read-out: Emax, Gαq/Gγ1 dissociation, B2R(Ø). From the text: (§1) To test this hypothesis, we used live-cell bioluminescence resonance energy transfer (BRET) measurements to monitor the activation of G proteins by B2R. HEK293A cells were cotransfected with vectors coding for Gαq-RlucII or Gαi2/3-RlucII, Gβ, GFP10-Gγ1, and B2R or B2R^(Ø). In this experimental setting, the dissociation of Gαq-RlucII or Gαi2/3-RlucII from GFP10-Gγ1 results in a decrease of BRET signals. BRET data in Figure 6, A–C are presented relative to the maximum B2R-induced BRET response.
(§2) D, β-arrestin2 recruitment at the plasma membrane after stimulation with NG291 in HEK293A cells transfected with B2R and B2R^(Ø) by following BRET proximity of β-arr2-RLuc2 and rGFP-CAAX. […] Note.
(§3) BRET assays were performed as previously described ([56]). Briefly, HEK293A cells were grown in 96-well plates for 48 h after transient transfection with 10 μg BRET constructs (Gαq-RLuc2, Gβ1, and GFP10-Gγ1) (Gαi2-Rluc2, Gβ1, and GFP10-Gγ1) (Gαi3-Rluc2, Gβ1, and GFP10-Gγ1) (β-arrestin2-Rluc2 and rGFP-CAAX) and B2R or B2R^(Ø). Cells were washed twice with stimulation buffer (10 mM HEPES pH 7.4, 1 mM CaCl2, 0.5 mM MgCl2, 4.2 mM KCl, 146 mM NaCl, 5.5 mM glucose) and incubated for 1 h in 80 μl stimulation buffer at room temperature. […] BRET readings were collected in the […] (Rluc2) and […] (GFP10) windows, and BRET signal was calculated as a ratio of GFP10 on Rluc2. […]

For experiment [3], the target named is T3, human B2R (Gαi2) (Homo sapiens, UniProt P30411).
T3 construct: expressed in transfected cells; host or cells: HEK293A
T3 sequence (P30411 1-391): T1 sequence (P30411 1-391)
Put plainly: BRET G protein coupling Gαi2-RLuc2/GFP10-Gγ1, B2R-transfected HEK293A cells. Format: cell-based. The settings on record: HEK293-A; relative to maximum B2R-induced BRET response; mean ± SD, n = 4; ††p < 0.01 vs B2R(Ø); read-out: Emax, Gαi2/Gγ1 dissociation, B2R.
From the text: as §1, §2, §3

Experiment [4] addresses T4, human B2R (β-arrestin2) (Homo sapiens, UniProt P30411).
T4 construct: expressed in transfected cells; host or cells: HEK293A
T4 sequence (P30411 1-391): T1 sequence (P30411 1-391)
In words: BRET β-arrestin2 recruitment at the plasma membrane, B2R-transfected HEK293A cells. The settings on record: HEK293-A. It is filed as cell-based.
From the text: as §2
(§4) Since both G proteins and β-arrestins commonly participate in activation of MAPK pathways, we extended the BRET analysis to determine the effects of AltB2R on the efficacy of β-arrestin2 recruitment at the plasma membrane of HEK293A cells transfected with vectors coding for β-arrestin2-RLucII, rGFP-CAAX, and B2R or B2R^(Ø). BRET signals were monitored after addition of NG291.
as §3

The target in experiment [5] is T5, mutant human B2R(Ø) lacking AltB2R expression (β-arrestin2) (Homo sapiens, UniProt P30411).
T5 construct: expressed in transfected cells; host or cells: HEK293A
T5 sequence (P30411 1-391): T1 sequence (P30411 1-391)
In words: BRET β-arrestin2 recruitment at the plasma membrane, B2R(Ø)-transfected HEK293A cells. It is filed as cell-based.
From the text: as §2, §4, §3

The target of experiment [6] is T1, mutant human B2R(Ø) lacking AltB2R expression. Put plainly: Inositol phosphate (IP1) production, IP-One Gq assay (FRET), B2R(Ø)-transfected HEK293A cells (lacking AltB2R). It is filed as cell-based. Conditions: for Emax: HEK293-A, Emax in B2R(Ø) versus B2R cells, read-out: reduction of efficacy (Emax) for IP1 formation in cells without AltB2R expression. Here is the method:
This construct is a monocistronic version of B2R with the mutation C168T. In this mutant, a premature stop codon is introduced in the AltB2R coding sequence (Q11stop) in a manner synonymous for B2R (L56 L). Thus, the B2R encodes B2R and AltB2R, whereas mutant B2R^(Ø) encodes only B2R.
(§5) To consolidate the western blot data, AlphaLISA assays were also conducted in parallel in the same cell lines for the quantitative analyses of B2R-stimulated ERK1/2 phosphorylation (Fig. 5, B and C).
(§6) Quantitative densitometry analysis of pERK1/2 levels over time (top right). pERK/total ERK ratios were calculated for each time point.
HeLa, HEK293T, and HEK293A cells were maintained in Dulbecco's modified Eagle's medium (DMEM) containing 10% fetal bovine serum (FBS) (Wisent, #080-450) and 1% antibiotic-antimycotic (Wisent, #450-115-EL) under standard conditions. HEK293A cells were transiently transfected with the pcDNA3.1-vector containing the cDNA of human B2R or B2R^(Ø), using polyethylenimine (PEI) or JetPrime (Polyplus). HeLa cells were transiently transfected with B2R and AltB2R constructs using GeneCellin (Bulldog Bio Inc) or JetPrime (Polyplus) transfection reagent, as per the manufacturer’s instructions, and incubated 24 h at 37 °C, unless otherwise stated.
Inositol monophosphate (IP1) production was determined using the IP-One Gq assay kits (Cisbio, #62IPAPEB), according to the manufacturer's instructions. Fluorescence resonance energy transfer (FRET) signals were measured with a Tecan M1000 plate reader.

Experiment [7] concerns the target T6, mutant human B2R(Ø) lacking AltB2R expression (Gαi2) (Homo sapiens, UniProt P30411).
T6 construct: expressed in transfected cells; host or cells: HEK293A
T6 sequence (P30411 1-391): T1 sequence (P30411 1-391)
In words: BRET G protein coupling Gαi2-RLuc2/GFP10-Gγ1, B2R(Ø)-transfected HEK293A cells. It is filed as cell-based. Conditions: HEK293-A; relative to maximum B2R-induced BRET response; mean ± SD, n = 4; read-out: Emax, Gαi2/Gγ1 dissociation, B2R(Ø).
From the text: as §1, §2, §3

In experiment [8] the target is T7, mutant human B2R(Ø) lacking AltB2R expression (Gαi3) (Homo sapiens, UniProt P30411).
T7 construct: expressed in transfected cells; host or cells: HEK293A
T7 sequence (P30411 1-391): T1 sequence (P30411 1-391)
In words: BRET G protein coupling Gαi3-RLuc2/GFP10-Gγ1, B2R(Ø)-transfected HEK293A cells. Format: cell-based. The settings on record: HEK293-A; relative to maximum B2R-induced BRET response; mean ± SD, n = 4; read-out: Emax, Gαi3/Gγ1 dissociation, B2R(Ø).
From the text: as §1, §2, §3

Experiment [9] concerns the target T8, human B2R (Gαi3) (Homo sapiens, UniProt P30411).
T8 construct: expressed in transfected cells; host or cells: HEK293A
T8 sequence (P30411 1-391): T1 sequence (P30411 1-391)
In words: BRET G protein coupling Gαi3-RLuc2/GFP10-Gγ1, B2R-transfected HEK293A cells. The settings on record: HEK293-A; relative to maximum B2R-induced BRET response; mean ± SD, n = 4; †p < 0.05 vs B2R(Ø); read-out: Emax, Gαi3/Gγ1 dissociation, B2R. It is filed as cell-based.
From the text: as §1, §2, §3

Experiment [10] deals with mutant human B2R(Ø) lacking AltB2R expression (ERK1/2 phosphorylation). Put plainly: ERK1/2 phosphorylation (AlphaLISA SureFire Ultra), B2R(Ø)- versus B2R-transfected HEK293A cells. It is filed as cell-based. The settings on record: 1 μM agonist, n = 2. Here is the method: as §5, §6
Experiment [11] deals with T9, human B2R (Gαq) (Homo sapiens, UniProt P30411).
T9 construct: expressed in transfected cells; host or cells: HEK293A
T9 sequence (P30411 1-391): T1 sequence (P30411 1-391)
Put plainly: BRET G protein coupling Gαq-RLuc2/GFP10-Gγ1, B2R-transfected HEK293A cells. It is filed as cell-based. The settings on record: HEK293-A; relative to maximum B2R-induced BRET response; mean ± SD, n = 3; †p < 0.05 vs B2R(Ø); read-out: Emax, Gαq/Gγ1 dissociation, B2R.
From the text: as §1, §2, §3

`CC(=O)Nc1ccc(/C=C/C(=O)NCC(=O)N(C)c2ccc(Cl)c(COc3cccc4ccc(C)nc34)c2Cl)cn1` [FR173657]: the “binding affinity, B2R versus B2R(Ø)” value in experiment [1] was “same affinities”.

As for `N=C(N)NCCC[C@H](NC(=O)[C@H](Cc1cccs1)NC(=O)CN(C(=O)[C@H](CO)NC(=O)[C@H](Cc1cccs1)NC(=O)CNC(=O)[C@@H]1C[C@@H](O)CN1C(=O)[C@@H]1CCCN1C(=O)[C@@H](N)CCCNC(=N)N)C1CCCCC1)C(=O)O` [NG291, [Hyp^3,Thi^5,^NChg^7,Thi^8]-BK] (H-RP[Hyp]G[2Thi]S[Gly(N-cHex)][2Thi]R-OH; N-terminus and C-terminus assumed), the Emax in experiment [2] came to 74 ± 8%; in experiment [3] it was 100 ± 11%; in experiment [4], 100 ± 10%; in experiment [5] (HEK293-A, β-arr2-RLuc2 and rGFP-CAAX, mean ± SD, n = 3), 88 ± 9%; in experiment [6], 22%; in [7], 66 ± 12%. Moreover, the figures for the Emax in [8], in experiment [9] and in experiment [11] were 60 ± 22%, 100 ± 21% and 100 ± 10%, respectively. In addition, the “binding affinity, B2R versus B2R(Ø)” value in [1] is on record as “same affinities”. Moreover, the “recruitment of β-arrestin2, cells expressing or not AltB2R” value in experiment [5] (BRET, B2R versus B2R(Ø), BK: data not shown) is on record as “no difference in the recruitment of β-arrestin2”. Besides, in experiment [6] (comparison of EC50 between B2R and B2R(Ø), unpaired t-test), the “potency (EC50) for IP1 formation, B2R- versus B2R(Ø)-transfected cells” value was “no significant difference in potencies (EC50 values)”. The “maximal levels of phospho-ERK1/2 (AlphaLISA), B2R(Ø) versus B2R” value in [10] is “decreased maximal levels of phospho-ERK1/2”.

Take `COc1ccc(C[C@@H](CN[C@@H](CCCNC(=N)N)C(=O)O)NC(=O)[C@@H]2CCCN2C(=O)[C@H](CO)NC(=O)[C@H](Cc2cccs2)NC(=O)CNC(=O)[C@@H]2C[C@@H](O)CN2C(=O)[C@@H]2CCCN2C(=O)[C@@H](N)CCCNC(=N)N)cc1` [RMP-7, [Hyp^3,Thi^5,(4-Me)Tyr^8(ΨCH2NH)Arg^9]-BK] (HELM PEPTIDE1{R.P.[Hyp].G.[O=C([C@H](Cc1cccs1)N[*:1])[*:2]].S.P.[COc1ccc(C[C@@H](CN[C@@H](CCCNC(=N)N)C(=O)O)N[*:1])cc1]}$$$$V2.0): the Emax in [6] was found to be 16%.

Turning to “RPPGFSPFR [BK, H-Arg^1-Pro^2-Pro^3-Gly^4-Phe^5-Ser^6-Pro^7-Phe^8-Arg^9-OH]”, in experiment [1], the “binding affinity, B2R versus B2R(Ø)” value is listed as “same affinities”.
